According to patent US8580762B2, “Substituted purine and 7-deazapurine compounds” (Epizyme, Inc., priority 2010, dated 2013):
Read-outs that look alike come from different tables or passages of the source.

Molecular target: DOT1L(1-416) (Homo sapiens, UniProt Q8TEK3)
Assay: Determination of IC50: DOT1L(1-416) methyltransferase assay, 3H-SAM, oligonucleosome substrate, Flashplate
Format: biochemical
Conditions: read-out: DOT1L IC50
Method: Determination of IC50. Test compounds were serially diluted 3 fold in DMSO for 10 points and 1 μl was plated in a 384 well microtiter plate. […] 10 μl per well of substrate mix (same assay buffer with 200 nM S-[methyl-^3H]-adenosyl-L methionine, 600 nM of unlabeled […], and 20 nM oligonueleosome) was added to initiate the reaction. Reaction was incubated for 120 minutes at room temperature and quenched with 10 μl per well of 100 μM S-methyl-adenosyl-L methionine. For detection, substrate from 50 μl of reaction was immobilized on a 384 well Streptavidin coated Flashplate (Perkin Elmer) (also coated with 0.2% polyethyleneimine) and read on a Top Count scintillation counter (Perkin Elmer).

DOT1L(1-416), sequence (Q8TEK3 1-416): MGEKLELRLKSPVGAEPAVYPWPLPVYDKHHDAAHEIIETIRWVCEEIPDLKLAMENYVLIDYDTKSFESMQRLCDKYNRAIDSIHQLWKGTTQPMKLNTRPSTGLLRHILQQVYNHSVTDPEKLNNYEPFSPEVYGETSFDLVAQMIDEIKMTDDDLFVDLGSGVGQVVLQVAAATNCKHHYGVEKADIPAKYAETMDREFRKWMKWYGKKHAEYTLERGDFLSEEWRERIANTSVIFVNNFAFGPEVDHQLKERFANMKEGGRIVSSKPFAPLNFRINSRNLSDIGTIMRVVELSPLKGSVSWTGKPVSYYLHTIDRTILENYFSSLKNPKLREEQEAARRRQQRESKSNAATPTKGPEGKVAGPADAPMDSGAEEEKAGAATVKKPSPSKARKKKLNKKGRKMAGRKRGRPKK

`CN(C[C@H]1O[C@@H](n2cnc3c(N)ncnc32)[C@H](O)[C@@H]1O)[C@H]1C[C@H](CCc2nc3cc(C4CCC4)ccc3[nH]2)C1` [Compound 132, (2R,3R,4S,5R)-2-(6-amino-9H-purin-9-yl)-5-((((1s,3R)-3-(2-(5-cyclobutyl-1H-benzo[d]imidazol-2-yl)ethyl)cyclobutyl) (methyl)amino)methyl) tetrahydrofuran-3,4-diol] was tested, and the IC50 (class symbols) was less than 100 nM.
`CN(C[C@H]1O[C@@H](n2ccc3c(N)ncnc32)[C@H](O)[C@@H]1O)[C@H]1C[C@H](CCc2nc3cc(C(C)(C)C)ccc3[nH]2)C1` [Compound 92, (2R,3R,4S,5R)-2-(4-amino-7H-pyrrolo[2,3-d]pyrimidin-7-yl)-5-((((1s,3R)-3-(2-(5-(tert-butyl)-1H-benzo[d]imidazol-2-yl)ethyl)cyclobutyl) (methyl)amino)methyl) tetrahydrofuran-3,4-diol] showed an IC50 (class symbols) of less than 100 nM.
`CC(C)N(C[C@H]1O[C@@H](n2cnc3c(N)ncnc32)[C@H](O)[C@@H]1O)C1CC(CCc2nc3cc(C4CCC4)ccc3[nH]2)C1` (stereo partly drawn) [Compound 67, (2R,3R,4S,5R)-2-(6-amino-9H-purin-9-yl)-5-[({3-[2-(5-cyclobutyl-1H-1,3-benzodiazol-2-yl)ethyl]cyclobutyl}(propan-2-yl)amino)methyl]oxolane-3,4-diol] showed an IC50 (class symbols) of less than 100 nM.
Work on `CC(C)(C)c1ccc2[nH]c(CC[C@H]3C[C@@H](N(C[C@H]4O[C@@H](n5cnc6c(N)ncnc65)[C@H](O)[C@@H]4O)CC(F)(F)F)C3)nc2c1` [Compound 102, (2R,3R,4S,5R)-2-(6-amino-9H-purin-9-yl)-5-((((1r,3S)-3-(2-(5-(tert-butyl)-1H-benzo[d]imidazol-2-yl)ethyl)cyclobutyl) (2,2,2-trifluoroethyl)amino)methyl)tetrahydrofuran-3,4-diol] yielded an IC50 (class symbols) of 100 to 1000 nM.
Compound `CC(C)N(C[C@@H]1C[C@@H](O)[C@H](n2ccc3c(N)ncnc32)C1)[C@H]1C[C@H](CCc2nc3cc(Cl)c(C(F)(F)F)cc3[nH]2)C1` [Compound 103, (1R,2R,4S)-2-(4-amino-7H-pyrrolo[2,3-d]pyrimidin-7-yl)-4-((((1s,3S)-3-(2-(5-chloro-6-(trifluoromethyl)-1H-benzo[d]imidazol-2-yl)ethyl)cyclobutyl) (isopropyl)amino)methyl)cyclopentanol] has an IC50 (class symbols) of 1000 to 10000 nM.
In the case of `CN(C[C@H]1O[C@@H](n2cnc3c(N)ncnc32)[C@H](O)[C@@H]1O)[C@H]1C[C@H](CCc2nc3cc(C4CC4)ccc3[nH]2)C1` [Compound 134, (2R,3R,4S,5R)-2-(6-amino-9H-purin-9-yl)-5-((((1s,3R)-3-(2-(5-cyclopropyl-1H-benzo[d]imidazol-2-yl)ethyl)cyclobutyl) (methyl)amino)methyl) tetrahydrofuran-3,4-diol], the IC50 (class symbols) is reported as less than 100 nM.
For `CC(C)(C)c1ccc2[nH]c(CC[C@H]3C[C@@H](NC[C@H]4O[C@@H](n5cnc6c(N)ncnc65)[C@H](O)[C@@H]4O)C3)nc2c1` [Compound 98, (2R,3R,4S,5R)-2-(6-amino-9H-purin-9-yl)-5-((((1r,3S)-3-(2-(5-(tert-butyl)-1H-benzo[d]imidazol-2-yl)ethyl)cyclobutyl)amino)methyl) tetrahydrofuran-3,4-diol], the IC50 (class symbols) was less than 100 nM.
`CN(C[C@H]1C[C@@H](n2ccc3c(N)ncnc32)[C@H](O)[C@@H]1O)[C@H]1C[C@H](CCc2nc3cc(C(F)(F)F)c(Cl)cc3[nH]2)C1` [Compound 12, (1R,2S,3R,5R)-3-(4-amino-7H-pyrrolo[2,3-d]pyrimidin-7-yl)-5-((((1s,3R)-3-(2-(6-chloro-5-(trifluoromethyl)-1H-benzo[d]imidazol-2-yl)ethyl)cyclobutyl)(methyl)amino)methyl)cyclopentane-1,2-diol] showed an IC50 (class symbols) of less than 100 nM.
Compound `COCC(C)(C)c1ccc2[nH]c(CCC3CC(N(C[C@H]4O[C@@H](n5cnc6c(N)ncnc65)[C@H](O)[C@@H]4O)C(C)C)C3)nc2c1` (stereo partly drawn) [Compound 118, (2R,3R,4S,5R)-2-(6-amino-9H-purin-9-yl)-5-((isopropyl(3-(2-(5-(1-methoxy-2-methylpropan-2-yl)-1H-benzo[d]imidazol-2-yl)ethyl)cyclobutyl)amino)methyl) tetrahydrofuran-3,4-diol] has an IC50 (class symbols) of less than 100 nM.
Compound `CC(C)N(C[C@@H]1C[C@@H](O)[C@H](n2ccc3c(N)ncnc32)C1)C1CC(CCc2nc3cc(Cl)c(C(F)(F)F)cc3[nH]2)C1` (stereo partly drawn) [Compound 84, (1R,2R,4S)-2-(4-amino-7H-pyrrolo[2,3-d]pyrimidin-7-yl)-4-(((3-(2-(5-chloro-6-(trifluoromethyl)-1H-benzo[d]imidazol-2-yl)ethyl)cyclobutyl) (isopropyl)amino)methyl)cyclopentanol] has an IC50 (class symbols) of 1000 to 10000 nM.
In the case of `CN(C[C@H]1C[C@@H](n2ccc3c(N)ncnc32)[C@H](O)[C@@H]1O)[C@H]1C[C@H](CCc2nc3cc(Cl)c(Cl)cc3[nH]2)C1` [Compound 58, (1R,2S,3R,5R)-3-(4-amino-7H-pyrrolo[2,3-d]pyrimidin-7-yl)-5-((((1s,3R)-3-(2-(5,6-dichloro-1H-benzo[d]imidazol-2-yl)ethyl)cyclobutyl)(methyl)amino)methyl)cyclopentane-1,2-diol], the IC50 (class symbols) is reported as less than 100 nM.
Work on `CC(C)N(C[C@H]1O[C@@H](n2cnc3c(N)ncnc32)[C@H](O)[C@@H]1O)[C@H]1C[C@@H](CCc2nc3cc(Cl)c(C(F)(F)F)cc3[nH]2)C1` [Compound 5] yielded an IC50 (class symbols) of less than 100 nM and an IC50 of 0.59 nM.
For `CC(C)N(C[C@H]1O[C@@H](n2ccc3c(N)ncnc32)[C@H](O)[C@@H]1O)[C@H]1C[C@@H](CCc2nc3cc(OC(F)(F)F)ccc3[nH]2)C1` [Compound 87, (2R,3R,4S,5R)-2-(4-amino-7H-pyrrolo[2,3-d]pyrimidin-7-yl)-5-((isopropyl((1r,3S)-3-(2-(5-(trifluoromethoxy)-1H-benzo[d]imidazol-2-yl)ethyl)cyclobutyl)amino)methyl)tetrahydrofuran-3,4-diol], the IC50 (class symbols) was less than 100 nM and the IC50 was 0.8 nM.
`CN(C[C@H]1O[C@@H](n2cnc3c(N)ncnc32)[C@H](O)[C@@H]1O)[C@H]1C[C@@H](CCc2nc3cc(C4(C#N)CC4)ccc3[nH]2)C1` [Compound 137, 1-(2-(2-((1S,3r)-3-((((2R,3S,4R,5R)-5-(6-amino-9H-purin-9-yl)-3,4-dihydroxytetrahydro-furan-2-yl)methyl)(methyl)amino)cyclobutyl)ethyl)-1H-benzo[d]imidazol-5-yl)cyclo-propanecarbonitrile] showed an IC50 (class symbols) of less than 100 nM.
In the case of `CC(C)(C)c1ccc2[nH]c(CC[C@H]3C[C@H](N(CC4CC4)C[C@H]4C[C@@H](n5ccc6c(N)ncnc65)[C@H](O)[C@@H]4O)C3)nc2c1` [Compound 54, (1R,2S,3R,5R)-3-(4-amino-7H-pyrrolo[2,3-d]pyrimidin-7-yl)-5-((((1s,3R)-3-(2-(5-(tert-butyl)-1H-benzo[d]imidazol-2-yl)ethyl)cyclobutyl)(cyclopropylmethyl)amino)methyl)cyclopentane-1,2-diol], the IC50 (class symbols) is reported as less than 100 nM.
In the case of `CN(C[C@H]1O[C@@H](n2cnc3c(N)ncnc32)[C@H](O)[C@@H]1O)[C@H]1C[C@H](CCc2nc3cc(C(C)(C)C)ccc3[nH]2)C1` [Compound 72, (2R,3R,4S,5R)-2-(6-amino-9H-purin-9-yl)-5-((((1s,3R)-3-(2-(5-(tert-butyl)-1H-benzo[d]imidazol-2-yl)ethyl)cyclobutyl)(methyl)amino)methyl)tetrahydrofuran-3,4-diol], the IC50 (class symbols) is reported as less than 100 nM.
In the case of `CCN(C[C@H]1C[C@@H](n2ccc3c(N)ncnc32)[C@H](O)[C@@H]1O)[C@H]1C[C@H](CCc2nc3cc(C(C)(C)C)ccc3[nH]2)C1` [Compound 49, (1R,2S,3R,5R)-3-(4-amino-7H-pyrrolo[2,3-d]pyrimidin-7-yl)-5-((((1s,3R)-3-(2-(5-(tert-butyl)-1H-benzo[d]imidazol-2-yl)ethyl)cyclobutyl)(ethyl)amino)methyl)cyclopentane-1,2-diol], the IC50 (class symbols) is reported as less than 100 nM.
Work on `CN(C[C@H]1O[C@@H](n2cnc3c(N)ncnc32)[C@H](O)[C@@H]1O)[C@H]1C[C@H](CCc2nc3cc(OC(F)(F)F)ccc3[nH]2)C1` [Compound 97] yielded an IC50 (class symbols) of less than 100 nM.
`CC(C)(C)c1ccc2[nH]c(CCC3CC(N(C[C@H]4C[C@@H](n5ccc6c(N)ncnc65)[C@H](O)[C@@H]4O)C4CCC4)C3)nc2c1` (stereo partly drawn) [Compound 43, (1R,2S,3R,5R)-3-(4-amino-7H-pyrrolo[2,3-d]pyrimidin-7-yl)-5-(((3-(2-(5-(tert-butyl)-1H-benzo[d]imidazol-2-yl)ethyl)cyclobutyl)(cyclobutyl)amino)methyl)cyclopentane-1,2-diol] gave an IC50 (class symbols) of less than 100 nM.
For `CN(C[C@H]1C[C@@H](n2ccc3c(N)ncnc32)[C@H](O)[C@@H]1O)C1CC(CCc2nc3cc(C(F)(F)F)c(Cl)cc3[nH]2)C1` (stereo partly drawn) [Compound 7, (1R,2S,3R,5R)-3-(4-amino-7H-pyrrolo[2,3-d]pyrimidin-7-yl)-5-(((3-(2-(6-chloro-5-(trifluoromethyl)-1H-benzo[d]imidazol-2-yl)ethyl)cyclobutyl)(methyl)amino)methyl)cyclopentane-1,2-diol], the IC50 (class symbols) was less than 100 nM.
`CC(C)N(C[C@H]1O[C@@H](n2cnc3c(N)ncnc32)[C@H](O)[C@@H]1O)[C@H]1C[C@H](CCc2nc3cc(C4CCC4)ccc3[nH]2)C1` [Compound 114, (2R,3R,4S,5R)-2-(6-amino-9H-purin-9-yl)-5-((((1s,3R)-3-(2-(5-cyclobutyl-1H-benzo[d]imidazol-2-yl)ethyl)cyclobutyl) (isopropyl)amino)methyl)tetrahydrofuran-3,4-diol] gave an IC50 (class symbols) of less than 100 nM.
Compound `CC(C)N(CC1CC(Cc2nc3cc(C(C)(C)C)ccc3[nH]2)C1)C[C@H]1C[C@@H](n2ccc3c(N)ncnc32)[C@H](O)[C@@H]1O` (stereo partly drawn) [Compound 22, (1R,2S,3R,5R)-3-{4-amino-7H-pyrrolo[2,3-d]pyrimidin-7-yl}-5-{[({3-[(5-tert-butyl-1H-1,3-benzodiazol-2-yl)methyl]cyclobutyl}methyl)(propan-2-yl)amino]methyl}cyclopentane-1,2-diol] has an IC50 (class symbols) of 100 to 1000 nM.
